CS(N)(=O)=O
Conditions | solubility (mole fraction)
in ethanol, 283.13 K | 0.0265
in ethanol, 288.18 K | 0.0338
in ethanol, 293.14 K | 0.0412
in ethanol, 298.17 K | 0.0484
in ethanol, 302.16 K | 0.0614
in ethanol, 308.16 K | 0.0792
in ethanol, 313.06 K | 0.1
in ethanol, 318.07 K | 0.132
in ethanol, 323.16 K | 0.181
in ethyl acetate, 283.26 K | 0.0297
in ethyl acetate, 288.16 K | 0.0329
in ethyl acetate, 293.2 K | 0.0373
in ethyl acetate, 298.1 K | 0.0419
in ethyl acetate, 303.18 K | 0.0458
in ethyl acetate, 308.24 K | 0.0507
in ethyl acetate, 313.17 K | 0.0565
in ethyl acetate, 318.07 K | 0.0627
in ethyl acetate, 323.16 K | 0.0684
in isobutanol, 283.2 K | 0.0117
in isobutanol, 288.14 K | 0.0145
in isobutanol, 293.06 K | 0.0174
in isobutanol, 298.36 K | 0.0216
in isobutanol, 303.13 K | 0.026
in isobutanol, 308.14 K | 0.0309
in isobutanol, 313.04 K | 0.0384
in isobutanol, 318.16 K | 0.0481
in isobutanol, 323.04 K | 0.0592
in isopentanol, 283.16 K | 0.00502
in isopentanol, 288.14 K | 0.00747
in isopentanol, 293.16 K | 0.0108
in isopentanol, 298.17 K | 0.0138
in isopentanol, 303.05 K | 0.018
in isopentanol, 308.06 K | 0.0228
in isopentanol, 313.15 K | 0.0288
in isopropanol, 283.06 K | 0.0139
in isopropanol, 288.17 K | 0.0178
in isopropanol, 293.14 K | 0.0221
in isopropanol, 298.08 K | 0.0277
in isopropanol, 303.06 K | 0.0333
in isopropanol, 308.14 K | 0.044
in isopropanol, 313.14 K | 0.0556
in isopropanol, 318.16 K | 0.0704
in isopropanol, 323.04 K | 0.0917
in isopropyl acetate, 283.27 K | 0.0099
in isopropyl acetate, 288.14 K | 0.0112
in isopropyl acetate, 293.16 K | 0.0127
in isopropyl acetate, 298.34 K | 0.0148
in isopropyl acetate, 303.13 K | 0.0169
in isopropyl acetate, 308.1 K | 0.0195
in isopropyl acetate, 313.3 K | 0.0219
in isopropyl acetate, 318.22 K | 0.0251
in isopropyl acetate, 323.27 K | 0.0294
in methanol, 283.27 K | 0.0738
in methanol, 288.1 K | 0.0884
in methanol, 293.2 K | 0.108
in methanol, 298 K | 0.133
in methanol, 303.3 K | 0.163
in methanol, 308.36 K | 0.2
in methanol, 313.13 K | 0.243
in methanol, 318.1 K | 0.286
in methanol, 322.2 K | 0.33
in methyl propionate, 283.27 K | 0.0251
in methyl propionate, 288.27 K | 0.026
in methyl propionate, 293.06 K | 0.0291
in methyl propionate, 298.14 K | 0.0324
in methyl propionate, 303.36 K | 0.036
in n-butanol, 283.1 K | 0.0117
in n-butanol, 288.2 K | 0.0131
in n-butanol, 293.18 K | 0.015
in n-butanol, 298.16 K | 0.0172
in n-butanol, 303.26 K | 0.0218
in n-butanol, 308.06 K | 0.027
in n-pentanol, 283.14 K | 0.00546
in n-pentanol, 288.13 K | 0.00713
in n-pentanol, 293.14 K | 0.00998
in n-pentanol, 298.12 K | 0.0156
in n-pentanol, 303.06 K | 0.0219
in n-propanol, 283.16 K | 0.0125
in n-propanol, 288.14 K | 0.0153
in n-propanol, 293.08 K | 0.0185
in n-propanol, 298.14 K | 0.0213
in n-propanol, 303.12 K | 0.0296
in n-propanol, 308.24 K | 0.0375
in n-propanol, 313.18 K | 0.0471
in n-propanol, 318.24 K | 0.0608
in n-propanol, 323.24 K | 0.08
in n-propyl acetate, 283.07 K | 0.0114
in n-propyl acetate, 288.13 K | 0.0125
in n-propyl acetate, 293.26 K | 0.0141
in n-propyl acetate, 298.04 K | 0.0163
in n-propyl acetate, 303.14 K | 0.0185
in n-propyl acetate, 308.04 K | 0.0214
in n-propyl acetate, 313 K | 0.0243
in n-propyl acetate, 318.07 K | 0.028
in n-propyl acetate, 323.17 K | 0.0322
in sec-butanol, 283.3 K | 0.00628
in sec-butanol, 288.14 K | 0.0112
in sec-butanol, 293.13 K | 0.0166
in sec-butanol, 298.06 K | 0.0224
in sec-butanol, 303.1 K | 0.0284
in sec-butanol, 308.26 K | 0.036
in sec-butanol, 313.06 K | 0.0459

— BigSolDB 2.1
